From US10071095B2, “1,2,4-triazolo [4,3-A] pyridine derivatives and their use for the treatment of neurological and psychiatric disorders” (JANSSEN PHARMACEUTICALS, INC., priority 2009, dated 2018)

Assays:
human mGluR2 receptor = target: T1, human mGluR2 receptor (Homo sapiens, UniProt Q14416); test: [35S]GTPγS binding assay, positive allosteric modulation (GTPγS-PAM) in presence of EC20 glutamate; format: biochemical; details: in presence of glutamate at EC20, average pEC50 if more experiments, ‡ means tested once; for EC50: read-out: GTPγS - hR2 PAM pEC50 (converted)
T1 construct: expressed in transfected cells; host or cells: CHO cells
Summary of the method: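 Membranes from butyrate-stimulated CHO cells expressing human mGluR2 (7 μg protein) preincubated 30 min at 30°C with compound plus ~EC20 glutamate in HEPES pH 7.4, 100 mM NaCl, 3 mM MgCl2, 10 μM GDP, 10 μg/ml saponin. [35S]GTPγS (0.1 nM) incorporation over 30 min at 30°C measured by filtration and scintillation counting.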

[1] = system: PCP-induced hyperlocomotion in male NMRI mice; test: Phencyclidine (PCP)-induced hyperlocomotion in mice (video tracking); format: in vivo; details: for Mice ED50 (mg/kg) PCP-Inh., estimated ED50 (footnote a) / Mice ED50 (mg/kg) PCP-Inh.: inhibition of PCP-induced hyperlocomotion; for Mice ED50 (mg/kg) PCP-Inh., estimated ED50 (footnote a): estimated ED50 values (n = 3 per dose; 4-fold separation between doses); for Mice ED50 (mg/kg) PCP-Inh.: dose at which 50% of the tested animals show the effect
Method: Motor Activity (Video Tracking)
Apparatus and General Procedure
On the day of experiments, the mice were brought into the procedural room. They were housed individually and allowed to acclimate for at least a half hour prior to testing. Although the studies were conducted during the light cycle (from 8:00 to 16:00 h), the procedure room was only sparsely lit (3 to 30 LUX) to provide better contrast for the video tracking. Local lighting was used for the injection procedures. During each trial, an individual mouse was placed in an open field arena (grey PVC cylinder with a height of 40 cm and a diameter of 22.5 cm). Each arena was placed on an infrared LED (8×8 LEDs)-lit box (white PVC squared box; 40×40 cm^2; height 12.5 cm). Each mouse was placed in the center of the arena and allowed to explore freely for 30 min. After each trial, the arena was cleaned with a wet and subsequently with a dry cleaning cloth. An infrared sensitive tube camera and a white light source (in arena: 4-7 LUX) were mounted to the ceiling above the observation chamber to record and input activity to a computer. Animal behavior was recorded and analyzed using the Noldus Ethovision XT Video Tracking System (Version 3.1; Noldus, Wageningen, The Netherlands). The total distance traveled (cm) was calculated. Data were then exported to data management systems for further analysis and reporting.
Phencyclidine (PCP)-Induced Hyperlocomotion in Mice
Test compound or solvent was administered at a pre-defined time before measurement (standard: 30 min) to male NMRI mice that were challenged with phencyclidine (PCP; 5 mg/kg, s.c.) 30 min before measurement. Activity was measured for a period of 30 min.

T1 sequence (Q14416 19-872): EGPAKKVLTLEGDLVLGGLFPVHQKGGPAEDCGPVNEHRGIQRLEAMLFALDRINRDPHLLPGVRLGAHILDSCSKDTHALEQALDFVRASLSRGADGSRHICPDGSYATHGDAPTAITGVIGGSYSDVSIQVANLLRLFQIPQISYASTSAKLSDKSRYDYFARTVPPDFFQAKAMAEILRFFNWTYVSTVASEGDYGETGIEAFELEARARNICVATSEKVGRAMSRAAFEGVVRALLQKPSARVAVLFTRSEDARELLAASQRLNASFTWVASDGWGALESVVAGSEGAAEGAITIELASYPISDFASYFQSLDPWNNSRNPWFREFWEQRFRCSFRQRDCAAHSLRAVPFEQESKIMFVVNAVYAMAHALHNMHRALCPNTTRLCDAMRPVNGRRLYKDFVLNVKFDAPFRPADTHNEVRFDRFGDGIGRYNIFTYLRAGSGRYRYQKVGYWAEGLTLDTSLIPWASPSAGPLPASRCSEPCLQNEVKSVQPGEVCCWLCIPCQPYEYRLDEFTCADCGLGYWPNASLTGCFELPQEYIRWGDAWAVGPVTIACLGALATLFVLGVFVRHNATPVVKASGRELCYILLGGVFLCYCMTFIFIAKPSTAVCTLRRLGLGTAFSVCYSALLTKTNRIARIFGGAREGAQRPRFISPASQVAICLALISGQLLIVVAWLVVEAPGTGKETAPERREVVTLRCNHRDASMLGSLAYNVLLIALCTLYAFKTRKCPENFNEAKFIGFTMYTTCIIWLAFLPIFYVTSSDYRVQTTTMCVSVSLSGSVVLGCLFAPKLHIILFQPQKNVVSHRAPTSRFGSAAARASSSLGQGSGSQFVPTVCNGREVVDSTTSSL

| EC50 (human mGluR2 receptor) [nM] | melting point [°C] | GTPγS - hR2 PAM pEC50 (human mGluR2 receptor) | SMILES | other results |
| --- | --- | --- | --- | --- |
| 251 | > 300 | – | CCc1c(N2CCC(c3ccccc3)CC2)ccn2c(CC3CC3)nnc12 [compound 171, 3-Cyclopropylmethyl-8-ethyl-7-(4-phenylpiperidin-1-yl)-[1,2,4]triazolo[4,3-a]pyridine] | – |
| – | – | 7.23 | CC1(C)CN(c2ccn3c(CC4CC4)nnc3c2C(F)(F)F)CCN1c1cc(F)cc(F)c1 [compound 233] | – |
| – | – | 6.08‡ | FC1(F)CCN(C2CCN(c3ccn4c(CC5CC5)nnc4c3C(F)(F)F)CC2)CC1 [compound 238] | – |
| – | – | 5.86 | FC1(F)CCN(C2CCN(c3ccn4c(CC5CC5)nnc4c3Cl)CC2)CC1 [compound 242] | – |
| – | – | 6.67‡ | Clc1c(N2CCC(n3ccc4ccccc43)CC2)ccn2c(CC3CC3)nnc12 [compound 259] | – |
| – | – | 7.47 | FC(F)(F)c1c(N2CCC3(C=Cc4ccccc43)CC2)ccn2c(CC3CC3)nnc12 [compound 260] | – |
| – | – | 7.88‡ | FC(F)(F)c1c(N2C[C@@H]3[C@H](C2)[C@H]3c2ccccc2)ccn2c(CC3CC3)nnc12 [compound 266] | – |
| – | – | 7.83‡ | Fc1ccccc1C1CCN(c2ccn3c(CC4CC4)nnc3c2C(F)(F)F)CC1 [compound 274] | – |
| – | – | 7.72 | COc1cc(F)ccc1C1CCN(c2ccn3c(CC4CC4)nnc3c2C(F)(F)F)CC1 [compound 277] | – |
| – | – | 7.24‡ | Fc1ccc(COC2CCN(c3ccn4c(CC5CC5)nnc4c3C(F)(F)F)CC2)c(F)c1 [compound 279] | – |
| – | – | 5.95‡ | Fc1cc(CN2CCN(c3ccn4c(CC5CC5)nnc4c3Cl)CC2)cc(C(F)(F)F)c1 [compound 280] | – |
| – | – | 7.87‡ | FC(F)(F)c1c(N2CCC(c3ccccc3Cl)CC2)ccn2c(CC3CC3)nnc12 [compound 287] | – |
| – | – | 7.24 | Fc1cccc(F)c1C1CCN(c2ccn3c(CC4CC4)nnc3c2Cl)CC1 [compound 300] | inhibition of PCP-induced hyperlocomotion in mice (in words) [1]: inhibited; Mice ED50 (mg/kg) PCP-Inh., estimated ED50 (footnote a) [1]: 12.6 ^a) mg/kg |
| – | – | 7.45‡ | COc1cccc(F)c1N1CCN(c2ccn3c(CC4CC4)nnc3c2C(F)(F)F)CC1 [compound 301] | – |
| – | – | 6.55 | COc1cccc(F)c1N1CCN(c2ccn3c(CC4CC4)nnc3c2Cl)CC1 [compound 302] | – |
| – | – | 6.12 | FC(F)(F)c1cc(CN2CCN(c3ccn4c(CC5CC5)nnc4c3Cl)CC2)cc(C(F)(F)F)c1 [compound 304] | – |
| – | – | 7.24 | Fc1ccc(OC2CCN(c3ccn4c(CC5CC5)nnc4c3C(F)(F)F)CC2)c(F)c1 [compound 315] | – |
| – | – | 7.71‡ | CCCCc1nnc2c(C(F)(F)F)c(N3CCC(c4ccc(F)cc4F)CC3)ccn12 [compound 327] | – |
| – | – | 7.15‡ | CCOCc1nnc2c(C(F)(F)F)c(N3CCC(c4ccc(F)cc4F)CC3)ccn12.Cl [compound 339] | – |
| – | – | 7.46‡ | Fc1cc(F)cc(N2CCN(c3ccn4c(CC5CC5)nnc4c3C(F)(F)F)CC2)c1 [compound 351] | – |
| – | – | 7‡ | Fc1cnc(N2CCN(c3ccn4c(CC5CC5)nnc4c3C(F)(F)F)CC2)c(F)c1 [compound 359] | – |
| – | – | 6.44‡ | Fc1ccc(N2CCN(c3ccn4c(CC5CC5)nnc4c3C(F)(F)F)CC2)nc1 [compound 360] | – |

The remaining lines, values behind:

| SMILES | EC50 (human mGluR2 receptor) [nM] | melting point [°C] | GTPγS - hR2 PAM pEC50 (human mGluR2 receptor) | other results |
| --- | --- | --- | --- | --- |
| Clc1c(CN2CCC(c3ccccc3)CC2)ccn2c(CC3CC3)nnc12 [compound 1, 8-Chloro-3-cyclopropylmethyl-7-[(4-phenyl-1-piperidinyl)methyl]-1,2,4-triazolo[4,3-a]pyridine] | 209 | 181.8 | – | – |
| Clc1c(N2CCC3(CC2)OCc2ccccc23)ccn2c(CC3CC3)nnc12 [compound 6, 1′-[8-Chloro-3-(cyclopropylmethyl)-1,2,4-triazolo[4,3-a]pyridin-7-yl]-spiro[isobenzofuran-1(3H),4′piperidine]] | 129 | 194.5 | – | – |
| FC(F)(F)Cc1nnc2c(Cl)c(N3CCC4(CC3)OCc3ccccc34)ccn12 [compound 8] | 97.7 | > 300 | – | – |
| N#Cc1c(N2CCC(c3ccccc3)CC2)ccn2c(CN3CCOCC3)nnc12 [compound 11] | 7590 | 300 | – | – |
| FC(F)(F)Cc1nnc2c(Cl)c(N3CCC4(CC3)COc3ccccc34)ccn12 [compound 16, 1′-[8-Chloro-3-(2,2,2-trifluoroethyl)[1,2,4]triazolo[4,3-a]pyridin-7-yl]-spiro[1-benzofuran-3,4′-piperidine]] | 178 | 269.1 | – | – |
| CC(C)OCc1nnc2c(C(F)(F)F)c(N3CCC(F)(c4ccccc4)CC3)ccn12 [compound 18, 7-(4-Fluoro-4-phenylpiperidin-1-yl)-3-[(1-methylethoxy)methyl]-8-(trifluoromethyl)[1,2,4]triazolo[4,3-a]pyridine] | 69.2 | 153.7 | – | – |
| Clc1c(N2CCC(c3ccccc3)CC2)ccn2c(CC3CC3)nnc12 [compound 26, 8-Chloro-3-cyclopropylmethyl-7-[4-phenyl-piperidin-1-yl]-[1,2,4]triazolo[4,3-a]pyridine] | – | 194.1 | 6.99 | – |
| FC(F)(F)Cc1nnc2c(Cl)c(CN3CCC(c4ccccc4)CC3)ccn12 [compound 30] | – | – | 6.95 | inhibition of PCP-induced hyperlocomotion in mice (in words) [1]: inhibited; Mice ED50 (mg/kg) PCP-Inh., estimated ED50 (footnote a) [1]: 5 ^a) mg/kg |
| N#Cc1c(N2CCN(C3CCC(C(F)(F)F)CC3)CC2)ccn2c(CC3CC3)nnc12 (stereo not shown) [compound 44] | – | – | 6.02 | Mice ED50 (mg/kg) PCP-Inh. [1]: >40 mg/kg |
| CCc1nnc2c(C(F)(F)F)c(N3CCC(c4ccccc4)CC3)ccn12 [compound 66] | – | – | 6.94 | inhibition of PCP-induced hyperlocomotion in mice (in words) [1]: inhibited; Mice ED50 (mg/kg) PCP-Inh. [1]: 17.4 ^ mg/kg |
| FC(F)(F)c1c(N2CCC(c3ccccn3)CC2)ccn2c(CC3CC3)nnc12 [compound 78] | – | – | 6.83 | Mice ED50 (mg/kg) PCP-Inh. [1]: ≥10^ mg/kg |
| CC1(C)CN(c2ccn3c(CC(F)(F)F)nnc3c2Cl)CCN1c1ccccc1 [compound 100, 8-Chloro-3-(2,2,2-trifluoroethyl)-7-(3,3-dimethyl-4-phenyl-piperazin-1-yl)-[1,2,4]triazolo[4,3-a]pyridine] | 309 | 260.2 | – | – |
| FC(F)(F)c1c(N2CCN(c3ccccc3)C3(CC3)C2)ccn2c(CC3CC3)nnc12 [compound 121, 1′-[3-cyclopropylmethyl-8-(trifluoromethyl)[1,2,4]triazolo[4,3-a]pyridin-7-yl]-4-phenyl-4,7-diaza-spiro[2.5]octane] | 234 | 218.4 | – | – |
| FC(F)(F)c1c(N2CCC(c3ccccc3)CC2)ccn2c(CCC3CC3)nnc12 [compound 123, 8-Trifluoromethyl-3-(2′-cyclopropyl)ethyl-7-(4-phenylpiperidin-1-yl)-[1,2,4]triazolo[4,3-a]pyridine] | 40.7 | 300 | – | – |
| Cc1c(N2CCC(c3ccccc3)CC2)ccn2c(CC3CC3)nnc12 [compound 145, 3-Cyclopropylmethyl-8-methyl-7-(4-phenyl-piperidin-1-yl)-[1,2,4]triazolo[4,3-a]pyridine] | 417 | > 300 | – | – |
| CC1(c2ccccn2)CCN(c2ccn3c(CC4CC4)nnc3c2C(F)(F)F)CC1 [compound 148, 8-Trifluoromethyl-3-(cyclopropylmethyl)-7-(4-methyl-4-(2-pyridinyl)-piperidin-1-yl)-1,2,4-triazolo[4,3-a]pyridine] | 363 | > 300 | – | – |
| FC(F)(F)c1c(N2CCC(c3ccccc3)CC2)ccn2c(Cc3ccccn3)nnc12 [compound 153, 8-Trifluoromethyl-3-(2-pyridinylmethyl)-7-(4-phenylpiperidin-1-yl)-1,2,4-triazolo[4,3-a]pyridine] | 195 | > 300 | – | – |
| c1ccc(C2CCN(c3ccn4c(CC5CC5)nnc4c3C3CC3)CC2)cc1 [compound 159, 3-Cyclopropylmethyl-8-cyclopropyl-7-(4-phenylpiperidin-1-yl)-[1,2,4]triazolo[4,3-a]pyridine] | 204 | > 300 | – | – |
| FC(F)(F)c1c(CN2CCC(F)(c3ccccc3)CC2)ccn2c(CC3CC3)nnc12 [compound 250, 3-(Cyclopropylmethyl)-7-[(4-fluoro-4-phenyl-1-piperidinyl)methyl]-8-(trifluoromethyl)-1,2,4-triazolo[4,3-a]pyridine] | – | – | – | ED50 ([1]; Mus musculus, read-out: Mice ED50 (mg/kg) PCP-Inh.): > 10 mg/kg |
